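Five concentrations, 48 hours, 96-well plates. GI50 is the concentration that inhibits growth by half. TGI denotes the concentration required for complete inhibition of growth.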

Among the test systems are HT29 colon; ACHN renal; SK-MEL-28 melanoma; OVCAR-3 ovarian; CAKI-1 renal; M14 melanoma; SNB-19 CNS; LOX IMVI melanoma; UACC-257 melanoma; SN12C renal.
Common to all, as to experiment: DTP human tumour cell line panel, 48 h

In the case of `c1sc(NC2=NCCO2)c2c1CCCC2`, the TGI in the assay on HT29 colon, in the assay with ACHN renal, in the assay with SK-MEL-28 melanoma, with OVCAR-3 ovarian, with CAKI-1 renal and with M14 melanoma was > 100 µM throughout. The concentration for total growth inhibition (TGI) in the assay on SNB-19 CNS, in the assay with LOX IMVI melanoma and in the assay on UACC-257 melanoma was > 100 µM throughout.
With `Cc1c(/C=N\NC(=S)N2CCN(C(=S)N/N=C\c3c(C)n(C)n(-c4ccccc4)c3=O)CC2)c(=O)n(-c2ccccc2)n1C`, the TGI was 34.9 µM with HT29 colon; > 100 µM with ACHN renal; > 100 µM in the assay with OVCAR-3 ovarian; > 100 µM in the assay on CAKI-1 renal; > 100 µM in the assay with M14 melanoma; > 100 µM in the assay with SNB-19 CNS. Also, the TGI in the assay on UACC-257 melanoma is 97.3 µM.
For `COc1ccc(/C(=C/n2ccnc2)C(=O)c2ccc(OC)c(OC)c2)cc1`, the TGI in the assay with ACHN renal, with SN12C renal, with SK-MEL-28 melanoma, with OVCAR-3 ovarian, in the assay on CAKI-1 renal and in the assay on M14 melanoma was > 100 µM in each case. Besides, the TGI in the assay with SNB-19 CNS, in the assay with LOX IMVI melanoma and with UACC-257 melanoma was > 100 µM in each case.
For the compound `Cc1ccc(S(=O)(=O)N2CCN3C(=O)c4ccccc4C32c2ccc(F)cc2)cc1` (configuration not stated), the TGI with HT29 colon, in the assay on ACHN renal, in the assay on SN12C renal, in the assay with SK-MEL-28 melanoma, with OVCAR-3 ovarian and in the assay with CAKI-1 renal was > 100 µM throughout. The TGI in the assay on M14 melanoma, with SNB-19 CNS and in the assay with UACC-257 melanoma was > 100 µM in each case.
Regarding `O=c1c2c3ccccc3[nH]c2c2cccc3c2n1CCC3`, the TGI with HT29 colon, in the assay with ACHN renal, in the assay with SN12C renal, in the assay on SK-MEL-28 melanoma, in the assay on OVCAR-3 ovarian and in the assay with M14 melanoma was > 100 µM in each case. The TGI in the assay on SNB-19 CNS and with UACC-257 melanoma was > 100 µM each time.
Consider `Cc1[nH]c(/C=C2\C(=O)Nc3ccc(S(=O)(=O)Cc4c(Cl)cccc4Cl)cc32)c(C)c1C(=O)N1CCC[C@@H]1CN1CCCC1`, for which the GI50 was 1.62 µM with HT29 colon; 1.63 µM with ACHN renal; 1.24 µM with SN12C renal; 1.4 µM in the assay with SK-MEL-28 melanoma; 16 µM in the assay with OVCAR-3 ovarian; 5.05 µM in the assay on CAKI-1 renal. Also, the GI50 was 1.5 µM in the assay on M14 melanoma, 2.41 µM in the assay on SNB-19 CNS and 1.73 µM in the assay with LOX IMVI melanoma. The TGI in the assay with HT29 colon was 3.07 µM; with ACHN renal it was 3.07 µM; in the assay on SN12C renal, 2.57 µM; in the assay on SK-MEL-28 melanoma, 2.75 µM; in the assay on OVCAR-3 ovarian, 47.4 µM; in the assay with CAKI-1 renal, 13.6 µM. For the same compound, the TGI in the assay on M14 melanoma was determined as 2.92 µM; in the assay with SNB-19 CNS, 6.74 µM; with LOX IMVI melanoma, 3.22 µM.
For `Cc1ccc2c(c1C)CC1(Cc3c(ccc4c3CCC4)C1=O)C2=O` (configuration not stated), the TGI with HT29 colon, with ACHN renal, in the assay with SN12C renal, in the assay with SK-MEL-28 melanoma, with OVCAR-3 ovarian and with CAKI-1 renal was > 100 µM in each case. The TGI with M14 melanoma, in the assay with SNB-19 CNS and with UACC-257 melanoma was > 100 µM throughout.
`CC1C(c2cc(C(C)(C)C)c(O)c(C(C)(C)C)c2)c2cc3c(cc2OC1N1CCOCC1)OCO3` (configuration not stated): the TGI is > 100 µM in the assay on HT29 colon; 22.7 µM in the assay on ACHN renal; > 100 µM in the assay on SN12C renal; 40.5 µM with SK-MEL-28 melanoma; 35 µM with OVCAR-3 ovarian; 59.3 µM in the assay with M14 melanoma. Further, the TGI in the assay with SNB-19 CNS was 40.5 µM; in the assay with LOX IMVI melanoma, 44.7 µM; in the assay on UACC-257 melanoma, > 100 µM.
On to `O=C1CC2C=CC(O)C(C1)C2` (configuration not stated), for which the TGI in the assay on HT29 colon, in the assay on ACHN renal, in the assay with SN12C renal, in the assay on SK-MEL-28 melanoma, in the assay with OVCAR-3 ovarian and in the assay with M14 melanoma was > 100 µM throughout. For the same compound, the TGI in the assay on SNB-19 CNS, in the assay on LOX IMVI melanoma and with UACC-257 melanoma was > 100 µM each time.
Turning to `COC(=O)c1cc(CC(C)C)c2c(c1)[nH]c1ccccc12`, the TGI in the assay with HT29 colon, in the assay on ACHN renal, with SN12C renal, with SK-MEL-28 melanoma, in the assay on OVCAR-3 ovarian and with CAKI-1 renal was > 100 µM each time. Further, the TGI in the assay with M14 melanoma, in the assay on SNB-19 CNS and in the assay on LOX IMVI melanoma was > 100 µM in each case.
As to `COC(=O)C1(Cc2ccccc2)Cc2cc3c(cc2C1=O)CCC3` (configuration not stated), the concentration for total growth inhibition (TGI) was 36 µM in the assay on HT29 colon; > 100 µM with ACHN renal; > 100 µM in the assay on SN12C renal; > 100 µM with SK-MEL-28 melanoma; > 100 µM with OVCAR-3 ovarian; 57.6 µM with M14 melanoma. For the same compound, the TGI was > 100 µM with SNB-19 CNS, 79.1 µM in the assay with LOX IMVI melanoma and > 100 µM with UACC-257 melanoma.
`O=C(NS(=O)(=O)Nc1ccc(Cl)cc1)OCc1ccc(Cl)cc1Cl`: the TGI in the assay on HT29 colon was 51.2 µM; in the assay on ACHN renal it was > 100 µM; in the assay with SN12C renal, 63 µM; in the assay on SK-MEL-28 melanoma, 97.5 µM; in the assay with OVCAR-3 ovarian it was 36 µM; with M14 melanoma, > 100 µM. Besides, the values for the total growth inhibition concentration (TGI) in the assay with SNB-19 CNS, in the assay with LOX IMVI melanoma and in the assay on UACC-257 melanoma were 48.4 µM, 57.3 µM and > 100 µM, respectively.
Turning to `Cc1c(S(=O)(=O)c2ccccc2)c(N)n(Cc2ccccc2)c1C`, the TGI in the assay on HT29 colon, with ACHN renal, in the assay on SN12C renal, in the assay on SK-MEL-28 melanoma, in the assay on OVCAR-3 ovarian and in the assay on CAKI-1 renal was > 100 µM in each case. In addition, the TGI with M14 melanoma, in the assay on SNB-19 CNS and in the assay on UACC-257 melanoma was > 100 µM each time.
Turning to `CC(C)C(Sc1nc(-c2ccccc2)c(-c2ccccc2)[nH]1)C(=O)NNC(=S)Nc1ccccc1` (configuration not stated), the TGI turned out to be 36.8 µM in the assay with HT29 colon; 87 µM in the assay with ACHN renal; 33.8 µM in the assay with SN12C renal; 41.1 µM with SK-MEL-28 melanoma; 29 µM with OVCAR-3 ovarian; 30.6 µM with M14 melanoma. The TGI in the assay on SNB-19 CNS was determined as 58.6 µM; in the assay on LOX IMVI melanoma, 29.3 µM; with UACC-257 melanoma it was 33.5 µM.

Usually TGI stands for the concentration giving total growth inhibition. The low end stands for more potent growth arrest, the high end for less potent growth arrest. The term GI50 denotes the concentration giving 50% growth inhibition.

Values taken from PubChem BioAssay (NCI).
